Measured values reported in ChEMBL document CHEMBL1777709, “Asymmetric synthesis and biological evaluations of (+)- and (-)-6-dimethoxymethyl-1,4-dihydropyridine-3-carboxylic acid derivatives blocking N-type calcium channels” (Bioorg Med Chem Lett, 2011).

How the values were obtained:
[1] = Inhibition of Voltage-dependent N-type calcium channel- mediated calcium influx in human IMR-32 cells; assay type: cell-based
Rattus norvegicus = assay: Ratio of inhibition of L-type calcium channel to inhibition of N-type calcium channel in rat hypertension model at 3 ug/ml, iv; assay type: functional
[2] = biological target: Voltage-gated L-type calcium channel (Rattus norvegicus, UniProt P22002+Q02485+P27732); assay: Inhibition of Voltage-dependent L-type calcium channel in rat thoracic aorta ring; assay type: tissue-based

SMILES	IC50 ([1]; Homo sapiens, IMR-32) [nM]	Ratio (Rattus norvegicus)	IC50 [2] [nM]	IC50 ([1]; imr-32) [nM]
COCCOC(=O)C1=C(C)NC(C)=C(C(=O)OC/C=C/c2ccccc2)C1c1cccc([N+](=O)[O-])c1 (configuration not stated) [CILNIDIPINE]	1600	1	–	–
COC(OC)C1=C(C(=O)OC/C=C/c2ccccc2)C(c2cccc(Cl)c2)C(C(=O)O)=C(C)N1 (racemic)	3000	–	–	–
COC(OC)C1=C(C(=O)OC/C=C/c2ccccc2)C(c2cccc(Cl)c2)C(C(=O)O)=C(C)N1 (single isomer, unassigned; (+))	–	–	13200	2600
COC(OC)C1=C(C(=O)OC/C=C/c2ccccc2)C(c2cccc(Cl)c2)C(C(=O)O)=C(C)N1 (stereo in doubt; (-)-3)	–	–	1800	–
CC1=C(C(=O)O)C(c2cccc([N+](=O)[O-])c2)C(C(=O)OC/C=C/c2ccccc2)=C(C)N1 (racemic)	3500	–	–	–
